In PubChem BioAssay AID298 (DTP/NCI, 2004):
Several values for one entry are separate records, joined by “and”; a condition that tells them apart may be missing. Equal values may be shown once. Inconclusive results are not listed.

System: MX-1 breast xenograft, intrarenal, nude mice, tumor weight
Assay: NCI In Vivo Anticancer Drug Screen. Data for tumor model Human Mammary Carcinoma MX-1 Xenograft (intrarenal inoculation) in NU/NU BALB/C (nude) mice
Details: endpoint: mean tumor weight change, higher = larger tumour
Outline: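 Transplantable tumors established in mice; animals dosed with compound or vehicle; survival or tumor size then recorded. Result reported as treated (T) divided by vehicle control (C).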

[1] = dose: 6.25 mg/kg/injection, schedule: Q04DX003 (ip), vehicle: saline
[2] = dose: 12.5 mg/kg/injection, schedule: Q04DX003 (ip), vehicle: saline
[3] = dose: 25.0 mg/kg/injection, schedule: Q04DX003 (ip), vehicle: saline
[4] = dose: 100.0 mg/kg/injection, schedule: Q04DX003 (ip), vehicle: saline with Tween-80
[5] = dose: 120.0 mg/kg/injection, schedule: Q04DX003 (ip), vehicle: saline with Tween-80
[6] = dose: 200.0 mg/kg/injection, schedule: Q04DX003 (ip), vehicle: saline with Tween-80

COc1cccc2c1C(CO)N1C(C#N)C3CC(C(=O)O)C(C1C2)N3C (stereo not drawn)
T/C (dose: 3.75 mg/kg/injection, schedule: Q04DX003 (ip), vehicle: saline): 31 % of control
T/C (dose: 6.25 mg/kg/injection, schedule: Q01DX010 (ip), vehicle: saline): -61 % of control
T/C [1]: 9 % of control
T/C (dose: 6.25 mg/kg/injection, schedule: Q04DX003 (ip), vehicle: suspension in saline): 10 % of control
T/C (dose: 7.5 mg/kg/injection, schedule: Q04DX003 (ip), vehicle: saline): 40 % of control
T/C (dose: 12.5 mg/kg/injection, schedule: Q01DX010 (ip), vehicle: saline): -100 % of control
T/C [2]: 17 % of control
T/C (dose: 12.5 mg/kg/injection, schedule: Q04DX003 (ip), vehicle: suspension in saline): 6 % of control
T/C (dose: 15.0 mg/kg/injection, schedule: Q04DX003 (ip), vehicle: saline): 38 % of control
T/C (dose: 25.0 mg/kg/injection, schedule: Q01DX010 (ip), vehicle: saline): -99 % of control
T/C [3]: 14 % of control
T/C (dose: 25.0 mg/kg/injection, schedule: Q04DX003 (ip), vehicle: suspension in saline): -48 % of control
T/C (dose: 30.0 mg/kg/injection, schedule: Q04DX003 (ip), vehicle: saline): 58 % of control
T/C (dose: 50.0 mg/kg/injection, schedule: Q04DX003 (ip), vehicle: saline): 2 % of control
T/C (dose: 50.0 mg/kg/injection, schedule: Q04DX003 (ip), vehicle: suspension in saline): -79 % of control
T/C (dose: 60.0 mg/kg/injection, schedule: Q04DX003 (ip), vehicle: saline): 13 % of control

CCC(=O)[O][Bi]([c]1ccccc1)[c]1ccccc1
T/C (dose: 12.5 mg/kg/injection, schedule: Q04DX003 (ip), vehicle: Klucel (hydroxypropylcellulose) (HPC)): 100 % of control
T/C (dose: 25.0 mg/kg/injection, schedule: Q04DX003 (ip), vehicle: Klucel (hydroxypropylcellulose) (HPC)): 77 % of control

CC[PH+](CC)CC[S-].CC[PH+](CC)CC[S-].[Au+].[Au+]
T/C (dose: 40.0 mg/kg/injection, schedule: Q04DX003 (sc), vehicle: Klucel (hydroxypropylcellulose) (HPC)): 87 % of control
T/C (dose: 80.0 mg/kg/injection, schedule: Q04DX003 (sc), vehicle: Klucel (hydroxypropylcellulose) (HPC)): 69 % of control
T/C (dose: 160.0 mg/kg/injection, schedule: Q04DX003 (sc), vehicle: Klucel (hydroxypropylcellulose) (HPC)): 55 % of control
T/C (dose: 320.0 mg/kg/injection, schedule: Q04DX003 (sc), vehicle: Klucel (hydroxypropylcellulose) (HPC)): 80 % of control

CS(=O)(=O)CS(=O)(=O)OCCF
T/C [1]: 104 % of control
T/C [2]: 84 % of control
T/C [3]: 69 % of control

O=C1C=CN(C2OC(CO)C(O)C2O)C(=O)C1 (stereo not drawn)
T/C (dose: 90.0 mg/kg/injection, schedule: Q01DX009 (ip), vehicle: saline): 65 % of control
T/C (dose: 133.4 mg/kg/injection, schedule: Q01DX009 (ip), vehicle: saline): 98 % of control
T/C (dose: 200.0 mg/kg/injection, schedule: Q01DX009 (ip), vehicle: saline): 89 % of control
T/C (dose: 300.0 mg/kg/injection, schedule: Q01DX009 (ip), vehicle: saline): 36 % of control

CC1C(c2ccccc2)OC(N2CCOCC2)C(C)(C)CN1C (stereo not drawn)
T/C (dose: 150.0 mg/kg/injection, schedule: Q04DX003 (ip), vehicle: saline with Tween-80): 112 % of control
T/C (dose: 300.0 mg/kg/injection, schedule: Q04DX003 (ip), vehicle: saline with Tween-80): 101 % of control
T/C (dose: 600.0 mg/kg/injection, schedule: Q04DX003 (ip), vehicle: saline with Tween-80): 82 % of control

NC(Cc1ccc(N(CCCl)Cc2ccccc2)cc1)C(=O)O (stereo not drawn)
T/C [4]: 6 % of control and 14 % of control
T/C [5]: 3 % of control
T/C [6]: 7 % of control and -15 % of control
T/C (dose: 333.33 mg/kg/injection, schedule: Q04DX003 (ip), vehicle: saline with Tween-80): -90 % of control

[Cl][Pt+2][Cl].[NH-]C1CCC1.[NH2-]
T/C (dose: 6.25 mg/kg/injection, schedule: Q04DX003 (sc), vehicle: saline): -94 % of control
T/C (dose: 12.5 mg/kg/injection, schedule: Q04DX003 (sc), vehicle: saline): -97 % of control

Nc1cc2c(cc1Br)-c1c(C(=O)O)cccc1C2O (stereo not drawn)
T/C (dose: 150.0 mg/kg/injection, schedule: Q04DX003 (ip), vehicle: sodium bicarbonate): 97 % of control
T/C (dose: 300.0 mg/kg/injection, schedule: Q04DX003 (ip), vehicle: sodium bicarbonate): 94 % of control
T/C (dose: 600.0 mg/kg/injection, schedule: Q04DX003 (ip), vehicle: sodium bicarbonate): 101 % of control
T/C (dose: 1200.0 mg/kg/injection, schedule: Q04DX003 (ip), vehicle: sodium bicarbonate): 92 % of control

COc1cc(C(CC(C)=O)c2cc3c(cc2OC(C)=O)OCO3)cc(OC)c1OC (stereo not drawn) (tested in a mixture with another compound)
T/C (dose: 50.0 mg/kg/injection, schedule: Q04DX003 (ip), vehicle: saline with Tween-80): 59 % of control
T/C (dose: 72.0 mg/kg/injection, schedule: Q04DX003 (ip), vehicle: saline with Tween-80): 103 % of control
T/C [4]: 34 % of control
T/C [5]: 110 % of control
T/C [6]: 19 % of control and 20 % of control

CCCCCCCC(=O)O[C@H]1[C@H]2[C@@H](CC1(C)C)C(=O)[C@]13O[C@H]1C(=O)[C@]1(CO1)[C@]23C
T/C (dose: 5.0 mg/kg/injection, schedule: Q04DX003 (ip), vehicle: saline with Tween-80): 100 % of control
T/C (dose: 10.0 mg/kg/injection, schedule: Q04DX003 (ip), vehicle: saline with Tween-80): 96 % of control
T/C (dose: 20.0 mg/kg/injection, schedule: Q04DX003 (ip), vehicle: saline with Tween-80): 80 % of control

CN(C)C1C(=O)C(C(=O)NP(=O)(NCCCO)N(CCCl)CCCl)=C(O)C2(O)C(=O)C3=C(O)c4c(O)cccc4C(C)(O)C3CC12 (stereo not drawn)
T/C (dose: 300.0 mg/kg/injection, schedule: Q04DX003 (sc), vehicle: saline with Tween-80): -100 % of control and -98 % of control
T/C (dose: 600.0 mg/kg/injection, schedule: Q04DX003 (sc), vehicle: saline with Tween-80): -100 % of control

CN1CCN(c2ccc([N+](=O)[O-])c3no[n+]([O-])c23)CC1
T/C (dose: 37.5 mg/kg/injection, schedule: Q04DX003 (sc), vehicle: saline with Tween-80): 117 % of control
T/C (dose: 75.0 mg/kg/injection, schedule: Q04DX003 (sc), vehicle: saline with Tween-80): 83 % of control
T/C (dose: 150.0 mg/kg/injection, schedule: Q04DX003 (sc), vehicle: saline with Tween-80): 72 % of control

OCC(O)C(O)C(O)C(O)CO (stereo not drawn)
T/C (dose: 75.0 mg/kg/injection, schedule: Q04DX003 (ip), vehicle: saline): 75 % of control
T/C (dose: 150.0 mg/kg/injection, schedule: Q04DX003 (ip), vehicle: saline): 103 % of control
T/C (dose: 300.0 mg/kg/injection, schedule: Q04DX003 (ip), vehicle: saline): 91 % of control
T/C (dose: 600.0 mg/kg/injection, schedule: Q04DX003 (ip), vehicle: saline): 94 % of control
T/C (dose: 1200.0 mg/kg/injection, schedule: Q04DX003 (ip), vehicle: saline): 70 % of control

C/C=C/C=C\C=C/C(O)CC(OP(=O)(O)O)C(C)(O)/C=C/C1CC=CC(=O)O1 (stereo not drawn)
T/C (dose: 6.0 mg/kg/injection, schedule: Q04DX003 (ip), vehicle: water): 86 % of control
T/C (dose: 12.0 mg/kg/injection, schedule: Q04DX003 (ip), vehicle: water): 56 % of control
T/C (dose: 24.0 mg/kg/injection, schedule: Q04DX003 (ip), vehicle: water): 50 % of control
